Data on 4 compounds can be found in US11707440B2 (priority 2017, dated 2023).

Each structure is given as a SMILES string. Like-named read-outs stand apart in the source and are kept apart here. Marks after values point to notes of the source that are not given here.

The conditions of data set [1]: for Stock solution stability: stock solutions. From the text:
This example provides an LC-MS/MS method for the determination of ketamine and norketamine in sodium heparin human plasma using ketamine-d4 and norketamine-d4 as the respective internal standards (IS).

Data set [2] in a line: Pharmacokinetics of intranasal esketamine in healthy subjects (Example 9). The following applies: for Metabolite/Parent Ratio AUClast / Metabolite/Parent Ratio AUC∞ / Metabolite/Parent Ratio tmax / AUClast / AUC∞ / Cmax / t1/2: mean; for tmax: median. On the procedure:
Pharmacokinetic blood samples for measurement of esketamine and noresketamine concentrations in plasma were collected from predose until up to 24 hours after each intranasal esketamine regimen on Day 1 of each period.
Blood samples (4 mL each) for determination of esketamine and noresketamine plasma concentrations were collected into the appropriate collection tube (e.g., Vacutainer®) at timepoints 0.00, 0.12, 0.20, 0.37, 0.53, 0.67, 0.83, 1.00, 1.25, 1.50, 2.00, 3.00, 4.00, 6.00, 9.00, 12.00, 18.00, and 24.00 h. The total amount of blood to be drawn for clinical laboratory tests and PK evaluations is approximately 327 mL.
Plasma samples were analyzed for esketamine and noresketamine concentrations using the validated, specific and sensitive liquid chromatography coupled to tandem mass spectrometry (LC-MS/MS) achiral method of Example 8.
Serial PK blood samples (4 mL each) were collected for a 24-hour period from each subject (Periods 1, 2, and 3). […] Statistical Methods 1.6.4.1. Sample Size
The following key parameters of esketamine and noresketamine in plasma were calculated using noncompartmental methods and actual sampling times: Cmax, tmax, AUClast, AUC∞, t1/2,λ, and λz.

A further data set concerns MDD/TRD subjects. The following applies: 52-week safety study in MDD/TRD subjects (Berman et al., 2011); cited from earlier work.
Where [3] appears, read: after A: Esketamine 28 mg intranasal.
Setting [4] is: after B: Esketamine 56 mg intranasal.
Where [5] appears, read: after C: Esketamine 84 mg intranasal.
Where [6] appears, read: healthy subjects, 28, 56 and 84 mg.
Where [7] appears, read: metabolite after A: Esketamine 28 mg intranasal.
The mark [8] stands for this setting: metabolite after B: Esketamine 56 mg intranasal.
The mark [9] stands for this setting: metabolite after C: Esketamine 84 mg intranasal.

Consider `CN[C@]1(c2ccccc2Cl)CCCCC1=O` [5-Ketamine], for which the “QC sample long-term storage stability” value in data set [1] (human plasma, −20° C.) was found to be 707 days at −20 °C.

Turning to `NC1(c2ccccc2Cl)CCCCC1=O` (stereo not drawn) [Norketamine], the “QC sample freeze/thaw stability” value in data set [1] (freeze (−20° C.)/thaw (ice-water bath)) is 3 freeze (−20° C.)/thaw (ice-water bath) cycles; in data set [1] (freeze (−20° C.)/thaw (room temperature)) it was 3 freeze (−20° C.)/thaw (room temperature) cycles. For the same compound, in data set [1] (human plasma, room temperature), the “QC sample bench-top stability” value stood at 68.5 hours at room temp. Moreover, the “QC sample long-term storage stability” value in data set [1] (human plasma, −20° C.) came to 1552 days at −20 °C. The compound also displayed a Processed sample stability in data set [1] (room temperature) of 146.5 hours at room temperature. In data set [1] (room temperature and ice-water bath (0-4° C.)), the “Whole Blood Stability” value is 120 minutes at room temperature and in an ice-water bath. Moreover, the “Stock solution stability (spike solutions)” value in data set [1] (spike solutions, −20° C.) is 610 days at −20 °C for ketamine/norketamine spike solutions. Moreover, the Stock solution stability in data set [1] (room temperature under white light) was 6 h; in data set [1] (−20° C.), 15100 h.

By Cmax is commonly meant the maximum level reached in the sampled fluid or tissue. With `N[C@]1(c2ccccc2Cl)CCCCC1=O` [noresketamine], in data set [2] (setting [3]), the “Metabolite/Parent Ratio AUClast” value was found to be 3.62, the “Metabolite/Parent Ratio AUC∞” value was 3.80^b and the “Metabolite/Parent Ratio tmax” value turned out to be 1.96 h. For the same compound, in data set [2] (setting [4]), the “Metabolite/Parent Ratio AUClast” value was found to be 4.07, the “Metabolite/Parent Ratio AUC∞” value is on record as 4.22^b and the “Metabolite/Parent Ratio tmax” value is listed as 2.28 h. In addition, in data set [2] (setting [5]), the “Metabolite/Parent Ratio AUClast” value is 4.32, the “Metabolite/Parent Ratio AUC∞” value is 4.46^d and the “Metabolite/Parent Ratio tmax” value is on record as 2.55 h. For the same compound, in data set [2] (setting [6]), the “AUC (AUClast and AUC∞) variability, range” value is listed as 17.0% to 21.3; the “AUClast, mean ratio of noresketamine to esketamine, range” value is listed as 3.62 to 4.32; the “AUC∞, mean ratio of noresketamine to esketamine, range” value is 3.80 to 4.46; the “Cmax variability (percent coefficient of variation), range across treatment groups” value is 25.8% to 33.7. Moreover, in data set [2] (setting [6]), the “Cmax, mean ratio of noresketamine to esketamine, range” value was 1.96 to 2.55 and the “Mean t1/2, range” value lay in the range of 7.48 to 7.74 h. In data set [2] (healthy subjects, 28, 56 and 84 mg intranasal esketamine), the “Median tmax, range across the 3 intranasal regimens” value was in the range of 1.25 to 1.5 h. In addition, in data set [2] (setting [7]), the AUClast came to 454 ng·h/mL, the “AUC∞” value is 508^ h * ng/mL, the Cmax is on record as 92.8 ng/mL and the t1/2 worked out at 7.74 h. Moreover, in data set [2] (setting [7]), the tmax stood at 1.25 h. Further, in data set [2] (setting [8]), the AUClast amounted to 851 ng·h/mL, the “AUC∞” value is reported as 924^c h * ng/mL, the Cmax was 154 ng/mL and the t1/2 was 7.71^c h. Also, in data set [2] (setting [8]), the tmax is 1.50 h. In addition, in data set [2] (setting [9]), the AUClast is 1287 ng·h/mL, the “AUC∞” value is 1392^b h * ng/mL, the Cmax is 241 ng/mL and the t1/2 was 7.48^b h. Also, the tmax in data set [2] (setting [9]) is 1.50 h.

Take `OCCOCCN1CCN(C2=Nc3ccccc3Sc3ccccc32)CC1` [quetiapine]: in the data set with MDD/TRD subjects, the “Discontinuation rate due to adverse events” value is on record as 23.7%.
